According to US6794402B2, “Bicyclic cyclohexylamines and their use as NMDA receptor antagonists” (Warner-Lambert Company, priority 2000, dated 2004):
Counter-ions that a name gives are not always drawn.

How the values were obtained:
[1] = molecular target: T1, [3H]ifenprodil binding site, rat forebrain membranes (Rattus norvegicus, UniProt P35439+Q00960); assay: [3H]Ifenprodil binding assay; conditions: 4 nM [3H]-ifenprodil, 2 hours at room temperature
T1 construct: membrane fraction was prepared from frozen adult rat forebrains; tissue Zivic-Miller Laboratories, Inc; host or cells: adult rat forebrain, washed buffy coat membrane fraction
Experimental: All buffers and reagents used in assay incubations or to dissolve drugs were prepared using water purified through a Milli-Q reverse osmosis system (Millipore Corp, Bedford, Mass.) and treated with UV emissions. Prior to use in the assays, buffers were further filtered through a sterile Corning filtration unit (Corning Glass Works, Corning, N.Y.) containing a 0.2-micron filter. Buffer used to rinse the membranes on the assay filters was prepared with purified water, but was not refiltered and was stored no longer than 5 days. Stock solutions of the drugs (usually 10 mM) were dissolved in 20 mM HEPES-KOH buffer pH 7.4 (assay buffer) with the addition of 1 to 5 μL of glacial AcOH, if needed to keep them in solution. For eliprodil the stock solution was buffered with the addition of 10% DMSO. All subsequent dilutions from stock were made in buffer.
An extensively washed buffy coat membrane fraction was prepared from frozen adult rat forebrains (Zivic-Miller Laboratories, Inc., Zelienople, Pa.) as described previously (Coughenour L. L., Cordon, J. J., J. Pharmacol. Exp. Ther., 1997;280:584-592) and stored at −80° C. On the day of the assay, pellets were resuspended in 35 mL of assay buffer at pH 7.4 using a Polytron setting 6. After incubation at 37° C. for 30 minutes in a shaking water bath, the homogenate was centrifuged 40,000×g for 10 minutes at 4° C. The pellets were resuspended in fresh buffer and centrifuged 3 more times before final suspension for use in the assay.
[^3H]Ifenprodil Binding. Triplicate incubations were carried out in a volume of 0.5 mL in 1.3 mL polypropylene tubes (Marsh Biomedical Products Inc., Rochester, N.Y.) for 2 hours at room temperature. Incubations contained test agents, membranes (100-200 μg protein) and 4 nM[^3H]-ifenprodil in 20 mM HEPES-KOH buffer, pH 7.4 (assay buffer). Assays were started by addition of the membranes. Bound radioligand was separated by filtration under reduced pressure using a Tomtec Mach II, 96-well cell harvester (Tomtec Inc., Orange, Colo.). Filtration was through Whatman GF/B glass fiber filters (Whatman Ltd, Maidstone, England), which had been soaked for at least 15 minutes in 0.3% polyethylenimine and allowed to air dry. The filters were rinsed with 3 mL of ice cold assay buffer within 6 seconds. Air was allowed to pass through the filters for an additional 10 seconds to remove residual moisture. The filter mat was supported on a cold (−20° C.) teflon support, and filters from individual wells were separated and placed in Mini Poly-Q vials (Beckman Instruments Inc., Fullerton, Calif.) and filled with 4 mL of scintillation cocktail (Beckman Ready Protein^+). Radioactivity retained on the filter was determined by liquid scintillation spectrophotometry. Nonspecific binding was defined as the binding in the presence of 1 mM ifenprodil. Specific binding was 90%.
Data analysis. Binding curves were statistically analyzed for a best one or two site competition fit using GraphPad Prism software (GraphPad Software Inc., San Diego, Calif.). The normalized data was fit by nonweighted nonlinear regression to either [formula]
Control data was entered as 100%, and no parameters were constrained. Inhibition curves were compared by ANOVA with post test comparisons of the logIC50 using Dunnett's multiple comparisons post test or Student's nonpaired, two-tailed t-test (GraphPad InStat software).

T1 sequence (Q00960 27-1482, other chains not shown): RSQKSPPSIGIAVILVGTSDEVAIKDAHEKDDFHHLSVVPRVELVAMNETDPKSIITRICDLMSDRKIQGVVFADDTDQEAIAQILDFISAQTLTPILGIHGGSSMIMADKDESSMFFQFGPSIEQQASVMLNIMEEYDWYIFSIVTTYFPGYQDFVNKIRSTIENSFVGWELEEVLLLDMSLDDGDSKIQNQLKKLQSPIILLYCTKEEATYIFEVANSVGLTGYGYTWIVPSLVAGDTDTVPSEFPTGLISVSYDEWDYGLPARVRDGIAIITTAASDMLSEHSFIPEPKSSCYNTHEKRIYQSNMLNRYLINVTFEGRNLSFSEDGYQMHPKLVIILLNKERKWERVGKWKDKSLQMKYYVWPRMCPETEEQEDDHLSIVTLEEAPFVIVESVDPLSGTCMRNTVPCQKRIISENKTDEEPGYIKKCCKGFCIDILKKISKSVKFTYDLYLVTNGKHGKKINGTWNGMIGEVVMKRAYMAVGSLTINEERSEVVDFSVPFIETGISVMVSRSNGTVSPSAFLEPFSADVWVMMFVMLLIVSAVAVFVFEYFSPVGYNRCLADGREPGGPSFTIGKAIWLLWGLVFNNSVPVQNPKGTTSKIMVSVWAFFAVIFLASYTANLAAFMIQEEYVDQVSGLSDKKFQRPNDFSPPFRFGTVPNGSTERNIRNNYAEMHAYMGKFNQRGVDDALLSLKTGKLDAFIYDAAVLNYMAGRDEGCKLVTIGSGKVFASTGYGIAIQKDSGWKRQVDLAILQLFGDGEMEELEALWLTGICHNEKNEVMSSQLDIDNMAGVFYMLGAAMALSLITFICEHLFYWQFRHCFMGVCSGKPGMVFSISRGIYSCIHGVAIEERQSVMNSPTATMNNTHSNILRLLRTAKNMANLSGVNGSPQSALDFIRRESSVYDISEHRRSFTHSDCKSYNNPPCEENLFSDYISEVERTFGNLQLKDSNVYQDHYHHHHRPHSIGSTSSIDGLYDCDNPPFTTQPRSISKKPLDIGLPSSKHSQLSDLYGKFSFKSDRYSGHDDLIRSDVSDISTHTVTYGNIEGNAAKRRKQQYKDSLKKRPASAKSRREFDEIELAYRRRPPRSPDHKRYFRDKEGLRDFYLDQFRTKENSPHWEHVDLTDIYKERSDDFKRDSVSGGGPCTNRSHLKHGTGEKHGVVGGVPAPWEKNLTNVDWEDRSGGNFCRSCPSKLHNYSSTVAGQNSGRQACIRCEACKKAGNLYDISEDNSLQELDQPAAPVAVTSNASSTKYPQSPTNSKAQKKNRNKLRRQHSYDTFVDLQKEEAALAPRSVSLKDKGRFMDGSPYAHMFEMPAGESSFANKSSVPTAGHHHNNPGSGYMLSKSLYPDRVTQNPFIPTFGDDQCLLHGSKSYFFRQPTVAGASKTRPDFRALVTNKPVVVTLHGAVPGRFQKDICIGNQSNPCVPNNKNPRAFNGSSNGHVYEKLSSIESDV

| SMILES | melting point | IC50 [1] |
| --- | --- | --- |
| O=c1[nH]c2ccc([C@H]3CC[C@H](NCCCc4ccc(F)cc4)CC3)cc2o1 (as salt: HCl) [Example 4a, 6-{trans-4-[3-(4-Fluorophenyl)propylamino]cyclohexyl}-3H-benzoxazol-2-one] | 293 to 307 °C | – |
| O=c1[nH]c2ccc([C@H]3CC[C@H](NCCSc4ccccc4)CC3)cc2o1 (as salt: HCl) [Example 5a, 6-[trans-4-(2-Phenylsulfanylethylamino)cyclohexyl]-3H-benzoxazol-2-one] | 241 to 243 °C | – |
| O=c1[nH]c2ccc([C@H]3CC[C@H](NCCSc4ccc(F)cc4)CC3)cc2o1 (as salt: HCl) [Example 8, 6-{trans-4-[2-(4-Fluorophenylsulfanyl)ethylamino]cyclohexyl}-3H-benzoxazol-2-one] | 254 to 256 °C | – |
| C[C@H](CCc1ccccc1)N[C@H]1CC[C@H](c2ccc3[nH]c(=O)oc3c2)CC1 (as salt: HCl) [Example 9, 6-{trans-4-[(R)-1-Methyl-3-phenylpropylamino]cyclohexyl}-3H-benzoxazol-2-one] | 291 to 304 °C | – |
| Cc1ccc(CCCN[C@H]2CC[C@@H](c3ccc4[nH]c(=O)oc4c3)CC2)cc1 (as salt: HCl) [Example 13a, 6-[cis-4-(3-p-Tolylpropylamino)cyclohexyl]-3H-benzoxazol-2-one] | 263 to 265 °C | – |
| O=c1[nH]c2ccc([C@H]3CC[C@H](NCCCc4ccc(C(F)(F)F)cc4)CC3)cc2o1 (as salt: HCl) [Example 14, 6-{trans-4-[3-(4-Trifluoromethylphenyl)propylamino]cyclohexyl}-3H-benzoxazol-2-one] | 285 to 295 °C | – |
| O=c1[nH]c2ccc([C@H]3CC[C@H](NCC[S+]([O-])c4ccccc4)CC3)cc2o1 (stereo partly drawn) (as salt: HCl) [Example 15, 6-[trans-4-(2-Benzenesulfinylethylamino)cyclohexyl]-3H-benzoxazol-2-one] | 107 to 110 °C | – |
| O=c1[nH]c2ccc([C@H]3CC[C@H](NCCS(=O)(=O)c4ccccc4)CC3)cc2o1 (as salt: HCl) [Example 16, 6-[trans-4-(2-Benzenesulfonylethylamino)cyclohexyl]-3H-benzoxazol-2-one] | 202 to 208 °C | – |
| CN(CCSc1ccc(F)cc1)[C@H]1CC[C@H](c2ccc3[nH]c(=O)oc3c2)CC1 (as salt: HCl) [Example 20, 6-{trans-4-[2-(4-Fluorophenylsulfanylethyl)methylamino]cyclohexyl}-3H-benzoxazol-2-one] | 213 to 217 °C | – |
| Cc1ccc(CCCN(C)[C@H]2CC[C@H](c3ccc4[nH]c(=O)oc4c3)CC2)cc1 (as salt: HCl) [Example 21, 6-{trans-4-[Methyl-3-(p-Tolylpropyl)amino]cyclohexyl}-3H-benzoxazol-2-one] | 213 to 225 °C | – |
| CN(CCOc1ccccc1)[C@H]1CC[C@H](c2ccc3[nH]c(=O)oc3c2)CC1 (as salt: HCl) [Example 22, 6-{trans-4-[Methyl(2-phenoxyethyl)amino]cyclohexyl}-3H-benzoxazol-2-one] | 277 to 285 °C | – |
| CN(CCCc1ccc(C(F)(F)F)cc1)[C@H]1CC[C@H](c2ccc3[nH]c(=O)oc3c2)CC1 (as salt: HCl) [Example 23, 6-{trans-4-[Methyl-3-(4-Trifluoromethylphenyl)propylamino]cyclohexyl}-3H-benzoxazol-2-one] | 227 to 234 °C | – |
| CN(CCCc1ccc(F)cc1F)[C@H]1CC[C@H](c2ccc3[nH]c(=O)oc3c2)CC1 (as salt: HCl) [Example 24b, 6-(trans-4-{[3-(2,4-Difluorophenyl)propyl]methylamino}cyclohexyl)-3H-benzoxazol-2-one] | 269 to 272 °C | – |
| CCN(CCCc1ccc(F)cc1)[C@H]1CC[C@H](c2ccc3[nH]c(=O)oc3c2)CC1 (as salt: HCl) [Example 25, 6-(trans-4-{Ethyl-[3-(4-fluorophenyl)propyl]amino}cyclohexyl)-3H-benzoxazol-2-one] | 228 to 231 °C | – |
| CCN(CCCc1ccc(C(F)(F)F)cc1)[C@H]1CC[C@H](c2ccc3[nH]c(=O)oc3c2)CC1 (as salt: HCl) [Example 26] | 248 to 252 °C | – |
| CCN([C@H]1CC[C@H](c2ccc3[nH]c(=O)oc3c2)CC1)[C@H](C)CCc1ccccc1 (as salt: HCl) [Example 27, 6-(trans-4-{Ethyl-[(R)-1-methyl-3-phenylpropyl]amino}cyclohexyl)-3H-benzoxazol-2-one] | 139 to 158 °C | – |
| CCN([C@H]1CC[C@H](c2ccc3[nH]c(=O)oc3c2)CC1)[C@@H](C)CCc1ccccc1 (as salt: HCl) [Example 28, 6-(trans-4-{Ethyl-[(S)-1-methyl-3-phenylpropyl]amino}cyclohexyl)-3H-benzoxazol-2-one] | 221 to 246 °C | – |
| O=c1[nH]c2ccc([C@H]3CC[C@H](N(CCO)CCCc4ccc(F)cc4)CC3)cc2o1 (as salt: HCl) [Example 29, 6-{trans-4-[[3-(4-Fluorophenyl)propyl]-(2-hydroxyethyl)amino]cyclohexyl}-3H-benzoxazol-2-one] | 259 to 262 °C | – |
| CN(CCCc1ccc(Cl)cc1Cl)[C@H]1CC[C@H](c2ccc3[nH]c(=O)oc3c2)CC1 [Example 54, 6-(trans-4-{[3-(2,4-Dichlorophenyl)propyl]methylamino}cyclohexyl)-3H-benzoxazol-2-one] | – | 34 nM |
| CN(CCCc1ccc(F)c(F)c1F)[C@H]1CC[C@H](c2ccc3[nH]c(=O)oc3c2)CC1 [Example 55, 6-(trans-4-{[3-(2,3,4-Trifluorophenyl)propyl]methylamino}cyclohexyl)-3H-benzoxazol-2-one] | – | 5 nM |
| CC(C)Cc1ccc(CCCN(C)[C@H]2CC[C@H](c3ccc4[nH]c(=O)oc4c3)CC2)cc1 [Example 56, 6-(trans-4-{[3-(4-Isobutylphenyl)propyl]methylamino}cyclohexyl)-3H-benzoxazol-2-one] | – | 71 nM |
| CN(CCCc1c(F)cc(F)cc1F)[C@H]1CC[C@H](c2ccc3[nH]c(=O)oc3c2)CC1 [Example 57, 6-(trans-4-{[3-(2,4,6-Trifluorophenyl)propyl]methylamino}cyclohexyl)-3H-benzoxazol-2-one] | – | 6 nM |
| CN(CCCc1nccs1)[C@H]1CC[C@H](c2ccc3[nH]c(=O)oc3c2)CC1 [Example 59, 6-{trans-4-[Methyl(3-thiazol-2-ylpropyl)amino]cyclohexyl}-3H-benzoxazol-2-one] | – | 316 nM |
| CN(CCN(C)[C@H]1CC[C@H](c2ccc3[nH]c(=O)oc3c2)CC1)c1ccccc1 [Example 60, 6-(trans-4-{Methyl-[2-(Methylphenylamino)ethyl]amino}cyclohexyl)-3H-benzoxazol-2-one] | – | > 1000 nM |
| CN(CCCc1ccc(F)cc1)[C@H]1CC[C@H](c2ccc3[nH]c(=O)sc3c2)CC1 [Example 61b, 6-(trans-4-{[3-(4-Fluorophenyl)propyl]methylamino}cyclohexyl)-3H-benzthiazol-2-one] | – | 12 nM |
| O=c1[nH]c2ccc([C@H]3CC[C@H](NCCCc4ccc(F)cc4)CC3)cc2[nH]1 [Example 62, 5-{trans-4-[3-(4-Fluorophenyl)propylamino]cyclohexyl}-1,3-dihydrobenzoimidazol-2-one] | – | 17 nM |
| CN(CCCc1ccc(F)cc1)[C@H]1CC[C@H](c2ccc3[nH]c(=O)[nH]c3c2)CC1 [Example 63, 5-(trans-4-{[3-(4-Fluorophenyl)propyl]methylamino}cyclohexyl)-1,3-dihydrobenzoimidazol-2-one] | – | 2 nM |
| Cc1cc2[nH]c(=O)oc2cc1[C@H]1CC[C@H](N(C)CCCc2ccc(F)cc2)CC1 [Example 64, 6-(4-{[3-(4-Fluorophenyl)propyl]methyl-amino}cyclohexyl)-5-methyl-3H-benzoxazol-2-one] | – | 45 nM |
| COc1cc2[nH]c(=O)oc2cc1[C@H]1CC[C@H](N(C)CCCc2ccc(F)cc2)CC1 [Example 65, 6-(trans-4-{[3-(4-Fluorophenyl)propyl]methylamino}cyclohexyl)-5-methoxy-3H-benzoxazol-2-one] | – | 67 nM |
